Activity calls are given as the source filed them.
Key:
[1] = biological target: Serine/threonine-protein kinase Nek4 (Homo sapiens, UniProt P51957); assay type: functional
[2] = biological target: Tyrosine-protein kinase Blk (Homo sapiens, UniProt P51451); assay type: functional;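 also: obtained as one member of a kinome-wide kinase assay panel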
[3] = biological target: STE20-like serine/threonine-protein kinase (Homo sapiens, UniProt Q9H2G2); assay type: functional
[4] = biological target: Proto-oncogene tyrosine-protein kinase Src (Homo sapiens, UniProt P12931); assay type: functional;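 also: SRC entry within a kinome-wide kinase profiling panel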
[5] = biological target: Receptor tyrosine-protein kinase erbB-4 (Homo sapiens, UniProt Q15303); assay type: functional;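 also: ERBB4 member of a kinome-wide kinase profiling panel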
Receptor tyrosine-protein kinase erbB-4, sequence (Q15303 whole entry): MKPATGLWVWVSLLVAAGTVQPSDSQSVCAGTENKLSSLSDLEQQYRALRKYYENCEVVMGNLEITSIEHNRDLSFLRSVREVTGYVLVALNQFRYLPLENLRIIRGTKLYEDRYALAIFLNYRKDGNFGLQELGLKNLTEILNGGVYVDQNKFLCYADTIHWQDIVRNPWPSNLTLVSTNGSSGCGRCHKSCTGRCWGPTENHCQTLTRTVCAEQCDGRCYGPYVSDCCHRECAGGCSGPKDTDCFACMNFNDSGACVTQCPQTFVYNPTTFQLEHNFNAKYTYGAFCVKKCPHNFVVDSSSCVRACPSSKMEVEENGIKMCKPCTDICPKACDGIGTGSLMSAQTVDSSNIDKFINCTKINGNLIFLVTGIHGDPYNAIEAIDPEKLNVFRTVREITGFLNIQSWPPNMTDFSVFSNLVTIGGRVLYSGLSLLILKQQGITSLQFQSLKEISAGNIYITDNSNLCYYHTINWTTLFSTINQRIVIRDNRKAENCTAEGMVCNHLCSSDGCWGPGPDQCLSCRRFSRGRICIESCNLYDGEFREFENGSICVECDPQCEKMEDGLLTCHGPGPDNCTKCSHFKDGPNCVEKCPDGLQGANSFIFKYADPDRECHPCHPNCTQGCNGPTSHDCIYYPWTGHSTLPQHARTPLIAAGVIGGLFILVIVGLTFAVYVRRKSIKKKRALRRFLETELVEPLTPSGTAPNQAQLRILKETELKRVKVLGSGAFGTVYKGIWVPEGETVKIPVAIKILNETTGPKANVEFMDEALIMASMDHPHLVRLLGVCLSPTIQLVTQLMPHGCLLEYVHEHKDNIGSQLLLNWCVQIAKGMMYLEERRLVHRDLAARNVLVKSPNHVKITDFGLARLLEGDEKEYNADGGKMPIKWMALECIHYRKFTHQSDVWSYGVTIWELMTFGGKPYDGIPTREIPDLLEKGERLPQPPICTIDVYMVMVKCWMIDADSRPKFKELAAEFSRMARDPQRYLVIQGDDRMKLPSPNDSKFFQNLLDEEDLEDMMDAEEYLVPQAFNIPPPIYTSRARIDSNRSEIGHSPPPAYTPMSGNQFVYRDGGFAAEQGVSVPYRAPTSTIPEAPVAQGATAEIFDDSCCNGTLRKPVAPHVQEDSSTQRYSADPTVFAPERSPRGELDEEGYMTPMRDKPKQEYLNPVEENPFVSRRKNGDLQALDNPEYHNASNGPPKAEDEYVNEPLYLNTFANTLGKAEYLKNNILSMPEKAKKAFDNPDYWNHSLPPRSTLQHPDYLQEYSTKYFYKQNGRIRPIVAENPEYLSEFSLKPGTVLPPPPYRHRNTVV

[6] = biological target: Serine/threonine-protein kinase 17A (Homo sapiens, UniProt Q9UEE5); assay type: functional
[7] = biological target: Serine/threonine-protein kinase PLK4 (Homo sapiens, UniProt O00444); assay type: functional;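 also: PLK4 measured as one member of a kinome-wide kinase profiling panel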
[8] = biological target: Protein kinase C iota type (Homo sapiens, UniProt P41743); assay type: functional;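 also: measured within a kinome-wide kinase panel, PRKCI as panel member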
[9] = biological target: Serine/threonine-protein kinase BRSK1 (Homo sapiens, UniProt Q8TDC3); assay type: functional;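 also: measured within a kinome-wide kinase panel, with the target listed as KIAA1811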
[10] = biological target: Mitogen-activated protein kinase 12 (Homo sapiens, UniProt P53778); assay type: functional;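 also: measured as one member of a kinome-wide kinase profiling panel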
[11] = biological target: Tyrosine-protein kinase Srms (Homo sapiens, UniProt Q9H3Y6); assay type: functional;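 also: SRMS measured as one member of a kinome-wide kinase profiling panel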
Tyrosine-protein kinase Srms, sequence (Q9H3Y6 whole entry): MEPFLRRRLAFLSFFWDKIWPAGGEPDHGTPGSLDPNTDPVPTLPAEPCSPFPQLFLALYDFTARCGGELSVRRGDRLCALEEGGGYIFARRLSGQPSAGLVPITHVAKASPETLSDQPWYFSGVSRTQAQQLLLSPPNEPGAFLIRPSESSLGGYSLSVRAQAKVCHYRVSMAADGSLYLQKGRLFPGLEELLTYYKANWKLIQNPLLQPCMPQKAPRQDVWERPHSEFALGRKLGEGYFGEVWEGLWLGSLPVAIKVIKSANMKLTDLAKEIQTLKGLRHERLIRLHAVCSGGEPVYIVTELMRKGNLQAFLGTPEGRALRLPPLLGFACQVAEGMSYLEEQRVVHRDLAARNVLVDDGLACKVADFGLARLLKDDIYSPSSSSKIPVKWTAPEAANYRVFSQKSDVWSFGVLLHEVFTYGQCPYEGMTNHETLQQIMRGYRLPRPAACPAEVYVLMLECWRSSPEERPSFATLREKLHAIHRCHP

[12] = biological target: Dual specificity tyrosine-phosphorylation-regulated kinase 4 (Homo sapiens, UniProt Q9NR20); assay type: functional
[13] = biological target: Tyrosine-protein kinase Lyn (Homo sapiens, UniProt P07948); assay type: functional;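 also: lyn as one member of a kinase panel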
[14] = biological target: Mitogen-activated protein kinase 13 (Homo sapiens, UniProt O15264); assay type: functional
Mitogen-activated protein kinase 13, sequence (O15264 whole entry): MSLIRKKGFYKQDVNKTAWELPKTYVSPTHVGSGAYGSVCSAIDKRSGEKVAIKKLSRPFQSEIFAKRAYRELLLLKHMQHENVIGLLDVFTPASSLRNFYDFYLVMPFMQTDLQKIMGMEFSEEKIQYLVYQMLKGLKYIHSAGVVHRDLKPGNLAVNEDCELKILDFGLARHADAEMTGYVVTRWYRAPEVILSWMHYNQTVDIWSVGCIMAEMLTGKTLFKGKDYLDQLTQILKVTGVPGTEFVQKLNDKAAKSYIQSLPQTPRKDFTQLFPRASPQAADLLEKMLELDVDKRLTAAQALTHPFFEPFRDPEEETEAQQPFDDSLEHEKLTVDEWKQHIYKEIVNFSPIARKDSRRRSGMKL

[15] = biological target: Serine/threonine-protein kinase D2 (Homo sapiens, UniProt Q9BZL6); assay type: functional;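 also: measured against PRKD2 as one member of a kinome-wide kinase profiling panel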
[16] = biological target: Casein kinase II subunit alpha (Homo sapiens, UniProt P68400); assay type: functional
[17] = biological target: Interleukin-1 receptor-associated kinase 4 (Homo sapiens, UniProt Q9NWZ3); assay type: functional
[18] = biological target: Calcium/calmodulin-dependent protein kinase type 1 (Homo sapiens, UniProt Q14012); assay type: functional
[19] = biological target: Lymphokine-activated killer T-cell-originated protein kinase (Homo sapiens, UniProt Q96KB5); assay type: functional;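 also: value comes from a kinase panel screen in which TOPK was one of the panel members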
[20] = biological target: Protein kinase C gamma type (Homo sapiens, UniProt P05129); assay type: functional
[21] = biological target: Homeodomain-interacting protein kinase 2 (Homo sapiens, UniProt Q9H2X6); assay type: functional;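 also: measured within a kinome-wide kinase profiling panel, HIPK2 being one panel member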
Homeodomain-interacting protein kinase 2, sequence (Q9H2X6 whole entry): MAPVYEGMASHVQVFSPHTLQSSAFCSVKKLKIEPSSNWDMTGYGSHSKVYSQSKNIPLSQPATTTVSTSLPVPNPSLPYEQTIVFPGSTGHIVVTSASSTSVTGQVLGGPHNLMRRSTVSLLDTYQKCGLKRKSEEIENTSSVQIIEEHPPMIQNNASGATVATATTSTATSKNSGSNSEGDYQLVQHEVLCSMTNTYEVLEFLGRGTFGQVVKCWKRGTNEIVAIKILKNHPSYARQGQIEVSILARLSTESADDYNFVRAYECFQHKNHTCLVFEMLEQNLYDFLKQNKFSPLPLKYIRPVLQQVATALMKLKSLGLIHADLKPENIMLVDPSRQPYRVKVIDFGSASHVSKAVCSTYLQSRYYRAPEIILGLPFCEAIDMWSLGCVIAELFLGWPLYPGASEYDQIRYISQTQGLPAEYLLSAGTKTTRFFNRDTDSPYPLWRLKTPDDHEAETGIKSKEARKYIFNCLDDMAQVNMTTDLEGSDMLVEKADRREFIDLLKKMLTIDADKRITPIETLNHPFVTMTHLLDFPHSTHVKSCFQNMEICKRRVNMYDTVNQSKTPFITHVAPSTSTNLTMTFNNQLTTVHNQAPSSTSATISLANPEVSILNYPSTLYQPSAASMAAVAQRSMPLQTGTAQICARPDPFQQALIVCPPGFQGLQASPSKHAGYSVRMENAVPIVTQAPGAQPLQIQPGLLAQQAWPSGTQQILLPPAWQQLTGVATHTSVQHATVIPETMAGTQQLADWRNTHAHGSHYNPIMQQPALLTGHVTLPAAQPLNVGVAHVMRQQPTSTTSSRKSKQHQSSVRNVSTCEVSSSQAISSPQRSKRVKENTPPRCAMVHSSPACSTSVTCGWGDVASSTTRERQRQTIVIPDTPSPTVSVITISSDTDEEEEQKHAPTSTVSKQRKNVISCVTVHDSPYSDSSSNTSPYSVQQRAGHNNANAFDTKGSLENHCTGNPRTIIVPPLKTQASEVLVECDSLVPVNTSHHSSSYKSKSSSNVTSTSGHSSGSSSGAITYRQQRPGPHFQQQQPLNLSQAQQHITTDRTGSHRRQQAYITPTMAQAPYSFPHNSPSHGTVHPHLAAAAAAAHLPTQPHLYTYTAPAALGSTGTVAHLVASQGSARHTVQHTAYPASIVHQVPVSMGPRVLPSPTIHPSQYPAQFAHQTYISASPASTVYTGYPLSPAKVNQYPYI

Ephrin type-A receptor 2 = Ephrin type-A receptor 2 (Homo sapiens, UniProt P29317); assay type: functional;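 also: EPHA2 tested as one member of a kinome-wide kinase panel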
[22] = biological target: Maternal embryonic leucine zipper kinase (Homo sapiens, UniProt Q14680); assay type: functional
[23] = biological target: Tyrosine-protein kinase ITK/TSK (Homo sapiens, UniProt Q08881); assay type: functional;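 also: affinity for ITK measured as one member of a broad kinase panel profiling binding across the kinome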
[24] = biological target: MAP kinase-activated protein kinase 3 (Homo sapiens, UniProt Q16644); assay type: functional;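 also: value comes from a kinome-wide profiling panel in which MAPKAPK3 is one of the panel members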
MAP kinase-activated protein kinase 3, sequence (Q16644 whole entry): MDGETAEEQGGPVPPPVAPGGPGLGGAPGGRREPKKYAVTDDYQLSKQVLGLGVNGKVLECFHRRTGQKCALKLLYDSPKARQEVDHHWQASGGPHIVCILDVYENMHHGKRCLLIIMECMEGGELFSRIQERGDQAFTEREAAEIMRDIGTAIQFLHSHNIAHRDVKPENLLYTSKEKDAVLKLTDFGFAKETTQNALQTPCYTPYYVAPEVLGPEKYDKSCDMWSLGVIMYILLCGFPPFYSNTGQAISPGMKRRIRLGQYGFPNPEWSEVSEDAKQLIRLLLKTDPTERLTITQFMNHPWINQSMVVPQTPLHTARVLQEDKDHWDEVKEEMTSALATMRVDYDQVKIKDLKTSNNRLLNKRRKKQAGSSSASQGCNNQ

[25] = biological target: Serine/threonine-protein kinase pim-2 (Homo sapiens, UniProt Q9P1W9); assay type: functional;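 also: value comes from a broad kinase panel profiling study in which PIM2 was one of the panel members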
[26] = biological target: Macrophage-stimulating protein receptor (Homo sapiens, UniProt Q04912); assay: Navigating the Kinome. Panel member name: MST1R; assay type: functional
[27] = biological target: Protein kinase C theta type (Homo sapiens, UniProt Q04759); assay: Navigating the Kinome. Panel member name: PRKCQ; assay type: functional
[28] = biological target: Hepatocyte growth factor receptor (Homo sapiens, UniProt P08581); assay type: functional;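 also: kinase panel profiling across the kinome, with MET as the panel member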
Caspase-3 = biological target: T1, Caspase-3 (Homo sapiens, UniProt P42574); assay type: functional;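 also: Dose-response selectivity test against caspase-3 for candidate inhibitors of sentrin-specific proteases (SENPs)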
T1 sequence (P42574 whole entry): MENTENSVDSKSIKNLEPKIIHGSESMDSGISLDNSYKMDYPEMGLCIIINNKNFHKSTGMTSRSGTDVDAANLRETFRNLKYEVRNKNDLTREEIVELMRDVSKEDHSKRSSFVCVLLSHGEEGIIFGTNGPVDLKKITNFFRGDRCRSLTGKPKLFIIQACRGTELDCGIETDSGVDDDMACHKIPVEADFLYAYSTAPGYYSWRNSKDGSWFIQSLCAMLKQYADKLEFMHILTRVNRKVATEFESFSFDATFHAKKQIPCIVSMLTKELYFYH

[29] = biological target: T2, Tyrosyl-DNA phosphodiesterase 2 (Homo sapiens, UniProt O95551); assay: human TDP2 enzyme inhibitors, dose response, biochemical, epi absorbance, IC50 (AID 743297)
T2 sequence (O95551 whole entry): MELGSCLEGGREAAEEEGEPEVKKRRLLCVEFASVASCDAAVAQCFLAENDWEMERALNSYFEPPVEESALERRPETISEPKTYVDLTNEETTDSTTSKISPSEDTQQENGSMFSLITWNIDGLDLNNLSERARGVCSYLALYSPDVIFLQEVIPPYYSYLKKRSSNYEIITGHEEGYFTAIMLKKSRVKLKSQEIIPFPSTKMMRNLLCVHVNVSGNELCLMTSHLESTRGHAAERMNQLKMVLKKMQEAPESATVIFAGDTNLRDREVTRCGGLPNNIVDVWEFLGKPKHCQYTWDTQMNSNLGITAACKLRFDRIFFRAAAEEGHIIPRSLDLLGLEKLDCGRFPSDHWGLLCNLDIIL

[30] = biological target: T3, Mannose-6-phosphate isomerase (Homo sapiens, UniProt P34949); assay: human PMI inhibitors, high substrate, primary screen, biochemical, fluorescence intensity, high mannose 6-phosphate (AID 1220)
T3 sequence (P34949 whole entry): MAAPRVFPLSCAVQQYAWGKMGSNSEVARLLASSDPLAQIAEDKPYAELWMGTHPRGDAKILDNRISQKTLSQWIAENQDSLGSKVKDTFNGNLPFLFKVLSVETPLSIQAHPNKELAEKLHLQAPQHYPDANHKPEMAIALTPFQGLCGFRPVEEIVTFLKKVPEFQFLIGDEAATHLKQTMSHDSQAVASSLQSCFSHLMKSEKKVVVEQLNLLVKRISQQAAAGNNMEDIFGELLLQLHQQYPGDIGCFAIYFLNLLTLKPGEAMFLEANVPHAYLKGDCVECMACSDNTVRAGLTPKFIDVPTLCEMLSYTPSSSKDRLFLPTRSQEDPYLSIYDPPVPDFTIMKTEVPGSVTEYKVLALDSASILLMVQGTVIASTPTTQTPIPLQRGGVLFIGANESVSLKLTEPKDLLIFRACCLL

Tyrosine-protein kinase Blk, sequence (P51451 whole entry): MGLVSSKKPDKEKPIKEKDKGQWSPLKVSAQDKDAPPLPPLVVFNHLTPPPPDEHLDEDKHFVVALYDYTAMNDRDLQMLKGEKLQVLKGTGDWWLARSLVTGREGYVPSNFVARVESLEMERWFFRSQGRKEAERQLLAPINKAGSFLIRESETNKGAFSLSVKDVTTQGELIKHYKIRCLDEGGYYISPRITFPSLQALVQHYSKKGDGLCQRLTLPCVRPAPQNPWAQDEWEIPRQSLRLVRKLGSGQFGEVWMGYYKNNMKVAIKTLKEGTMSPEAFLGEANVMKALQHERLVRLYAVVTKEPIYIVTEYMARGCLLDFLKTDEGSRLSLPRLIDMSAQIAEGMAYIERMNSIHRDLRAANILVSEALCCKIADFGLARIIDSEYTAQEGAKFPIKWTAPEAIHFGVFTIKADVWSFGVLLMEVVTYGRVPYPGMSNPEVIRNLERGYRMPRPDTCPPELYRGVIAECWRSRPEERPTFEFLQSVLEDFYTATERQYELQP

Cc1n[nH]c2ccc(-c3cncc(OCC(N)Cc4ccc(Cl)c(Cl)c4)c3)cc12 (configuration not stated)
Ki [1]: 126 nM (active) | Ki [2]: > 1580 nM (inactive) | Ki [3]: 1580 nM (active) | Ki [4]: > 2000 nM (inactive) | Ki [5]: > 3980 nM (inactive) | Ki [6]: 398 nM (active) | Ki [7]: 1260 nM (active) | Ki [8]: 1000 nM (active) | Ki [9]: 3160 nM (active) | Ki [10]: 398 nM (active) | Ki [11]: > 1580 nM (inactive) | Ki [12]: 1000 nM (active) | Ki [13]: > 1580 nM (inactive) | Ki [14]: 631 nM (active) | Ki [15]: 31.6 nM (active) | Ki [16]: > 6310 nM (inactive) | Ki [17]: 126 nM (active) | Ki [18]: 251 nM (active) | Ki [19]: 3980 nM (active) | Ki [20]: 15.8 nM (active) | Ki [21]: 126 nM (active) | Ki (Ephrin type-A receptor 2): > 3160 nM (inactive) | Ki [22]: 200 nM (active) | Ki [23]: > 1580 nM (inactive) | Ki [24]: > 10000 nM (inactive) | Ki [25]: 12.6 nM (active)

[2H]C([2H])([2H])Oc1cccc(C(C)NC(=O)c2sc(-c3ccncc3)nc2C)c1 (configuration not stated)
Ki [26]: > 3980 nM (inactive) | Ki [27]: > 2510 nM (inactive) | Ki [28]: > 2510 nM (inactive)

COc1ccc(-n2c(NC(=O)c3ccco3)c(C#N)c3nc4ccccc4nc32)cc1
IC50 (Caspase-3): 26600 nM (active) | IC50 [29]: > 128000 nM (inactive) | IC50 [30]: > 50000 nM (not active)

Reference: ChEMBL document CHEMBL1201862, “PubChem BioAssay data set” (2004)
